Laboratory results as given in PubChem BioAssay (NCI).
“And” between values parts separate entries of the source, which are not always exact repeats. Equal values may be shown once.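 Step 1: Grow cells in 96-well plates. Step 2: Expose to compound for 48 hours at 5 concentrations. Step 3: Interpolate endpoints linearly; if unreached, use highest concentration. GI50 = concentration required for 50% inhibition of growth. The concentration for full growth arrest is given as TGI.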

Tests used:
Experiment in all cases: NCI tumour cell line growth inhibition, 48 h
[1] = tested on: 786-0 renal
[2] = tested on: A549 NSCLC
[3] = tested on: EKVX NSCLC
[4] = tested on: HOP-62 NSCLC
[5] = tested on: NCI-H226 lung
[6] = tested on: NCI-H460 lung
[7] = tested on: OVCAR-3 ovarian
[8] = tested on: SF-539 CNS
[9] = tested on: SN12C renal
[10] = tested on: SNB-75 CNS

SMILES	GI50 [1]	TGI [1]	GI50 [2]	TGI [2]	GI50 [3]	TGI [3]	GI50 [4]	TGI [4]	GI50 [5]	TGI [5]	GI50 [6]	TGI [6]	GI50 [7]	TGI [7]	GI50 [8]	TGI [8]	GI50 [9]	TGI [9]	GI50 [10]	TGI [10]
Cc1cc2c(cc1Cl)SC(N(c1ccccc1Cl)S(=O)(=O)c1ccc(Br)s1)=NS2(=O)=O	30 µM	> 100 µM	25.7 µM	> 100 µM	21.9 µM	75.5 µM	37.5 µM	> 100 µM	23.1 µM	> 100 µM	13.9 µM	36.3 µM	18.2 µM	60.1 µM	9.92 µM	23.7 µM	19.5 µM	48.7 µM	17.3 µM	48.7 µM
Cc1cc(=O)oc2c(C3=NN(C=O)C(c4ccccc4)C3)c(O)ccc12 (configuration not stated)	–	81.4 µM	–	> 32.8 µM	–	> 100 µM	–	91.4 µM	–	> 100 µM	–	> 100 µM	–	> 100 µM	–	> 94.4 µM	–	> 100 µM	–	17.2 µM
c1ccc2c(c1)[nH]c1cnc3c4ncccc4[nH]c3c12	–	> 100 µM	–	> 100 µM	–	> 100 µM	–	> 100 µM	–	> 100 µM	–	> 100 µM	–	> 100 µM	–	> 100 µM	–	> 100 µM	–	> 100 µM
COc1ccc2[nH]c(Cl)c(/C=C3/C(=O)Nc4ccccc43)c2c1	0.282 µM	0.937 µM	1.2 µM	5.36 µM	2.07 µM	3.96 µM	0.523 µM	1.27 µM	0.782 µM	19.2 µM	1.25 µM	> 34.8 µM	0.537 µM	1.07 µM	0.483 µM	0.731 µM	0.339 µM	14.7 µM	0.252 µM	0.659 µM
NCCOc1ccc(/C(=C(/Cl)c2ccccc2)c2ccccc2)cc1	–	20.7 µM	–	31.5 µM	–	30.1 µM	–	32.7 µM	–	36.7 µM	–	21.6 µM	–	26.2 µM	–	28.9 µM	–	24 µM	–	24.1 µM
Cc1cc(F)c(C(=O)Nc2cccc(-c3nncn3C(C)C)n2)cc1-n1cnc(C2CC2)c1	17.1 µM	> 100 µM	15.2 µM	74 µM	13.1 µM	52.3 µM	16.6 µM	58.8 µM	19.5 µM	80.7 µM	14.5 µM	96.4 µM	12.5 µM	> 100 µM	11.6 µM	34.4 µM	15.6 µM	62.4 µM	10.3 µM	64.3 µM
CC(C)C[C@H](CC(=O)O)C(=O)N[C@@H](Cc1c[nH]c2ccccc12)C(=O)N[C@@H](C)c1ccccc1	> 25 µM	> 25 µM	> 25 µM	> 25 µM	> 25 µM	> 25 µM	> 25 µM	> 25 µM	> 25 µM	> 25 µM	> 25 µM	> 25 µM	> 25 µM	> 25 µM	> 25 µM	> 25 µM	> 25 µM	> 25 µM	> 25 µM	> 25 µM
CCN(C(=O)N1CCN(c2cc3c(cc2F)c(=O)c(C(=O)O)cn3C2CC2)CC1)c1nc(-c2ccccc2)cs1	2.47 µM	15.5 µM	3.11 µM	> 100 µM	3.35 µM	> 100 µM	2.82 µM	> 100 µM	1.84 µM	3.74 µM	3.11 µM	> 100 µM	2.61 µM	9.83 µM	2.48 µM	7.51 µM	3.44 µM	> 100 µM	3.66 µM	16.4 µM
CC(=O)N[C@H](C)[C@@H](O)[C@@H](C)[C@@H]1OC(=O)/C=C/C=C(C)\C=C\[C@]2(C)C[C@@H](NS(C)(=O)=O)C=C[C@@H]2/C=C(C)/C=C/[C@H]1C	0.0469 µM and 0.0185 µM	> 43.5 µM	0.0159 µM and 0.00435 µM	> 43.5 µM	–	> 43.5 µM	0.0103 µM and 0.0205 µM	> 43.5 µM	0.0156 µM and 0.00593 µM	> 43.5 µM	0.00812 µM and 0.0174 µM	> 43.5 µM	–	> 43.5 µM	0.00357 µM and 0.00623 µM	> 43.5 µM	0.00723 µM and 0.0129 µM	> 43.5 µM	0.00177 µM and 0.00888 µM	–
CNC(=O)c1cc(Oc2ccc3nc(NC(=O)Nc4ccc(CN5CCOCC5)c(C(F)(F)F)c4)sc3c2)ccn1	2.22 µM	4.32 µM	2.15 µM	5.86 µM	2.1 µM	7.55 µM	2.82 µM	10.1 µM	1.73 µM	4.3 µM	2.01 µM	4.33 µM	1.79 µM	4.16 µM	1.58 µM	3.37 µM	2.58 µM	9.36 µM	1.74 µM	4.95 µM
COC(=O)C(=O)C(CC(=O)Nc1cc(Cl)ccc1Cl)C(=O)OC (configuration not stated)	–	> 100 µM	–	> 100 µM	–	> 100 µM	–	> 100 µM	–	> 100 µM	–	> 100 µM	–	> 100 µM	–	> 100 µM	–	> 100 µM	–	> 100 µM
Oc1ccc(NC(=S)Nc2ccccc2)cc1	> 100 µM	> 100 µM	> 100 µM	> 100 µM	> 100 µM	> 100 µM	> 100 µM	> 100 µM	> 100 µM	> 100 µM	> 100 µM	> 100 µM	> 100 µM	> 100 µM	> 100 µM	> 100 µM	> 100 µM	> 100 µM	> 100 µM	> 100 µM
CCCCCCCCCCC(=O)CCCCCCC(=O)O	–	39.6 µM	–	32.2 µM	–	> 100 µM	–	68.8 µM	–	> 100 µM	–	30.9 µM	–	40 µM	–	43.8 µM	–	75.2 µM	–	> 100 µM
C=C1CCC2CC1C(C(=O)c1c[nH]c3ccccc13)=NC2(C)C (configuration not stated)	–	> 100 µM	–	> 100 µM	–	> 100 µM	–	> 100 µM	–	> 100 µM	–	> 100 µM	–	> 100 µM	–	> 100 µM	–	> 100 µM	–	> 100 µM
C/C(=C1/N=C(c2cc([N+](=O)[O-])ccc2Cl)N(c2ccc(Br)cc2)C1=O)c1ccc(N(CCC#N)CCC#N)cc1C	–	> 100 µM	–	62.6 µM	–	> 100 µM	–	> 100 µM	–	> 100 µM	–	> 100 µM	–	99.7 µM	–	> 100 µM	–	> 100 µM	–	> 100 µM
CN(C)c1ccc(/C=C/C(=O)c2ccc(Nc3nc(Nc4ccc(F)cc4)nc(Nc4ccc(F)cc4)n3)cc2)cc1	14.9 µM	45.8 µM	12.8 µM	34.2 µM	19.9 µM	83 µM	17.7 µM	47.4 µM	23.4 µM	78.8 µM	22 µM	> 100 µM	16.8 µM	46 µM	19 µM	44.6 µM	43 µM	> 100 µM	13.8 µM	39 µM
NC(N)=NN=c1c(=O)c2ccccc2c1=O	19.1 µM	33.3 µM	12.4 µM	30.5 µM	18.7 µM	34.8 µM	9 µM	21 µM	14.8 µM	28.1 µM	2.92 µM	7.14 µM	13 µM	26.4 µM	5.67 µM	18 µM	1.81 µM	3.83 µM	11.4 µM	23.7 µM
C[C@@H](Nc1nc(N[C@H](C)C(F)(F)F)nc(-c2cccc(Cl)n2)n1)C(F)(F)F	27.4 µM	91.4 µM	50.3 µM	> 100 µM	70.7 µM	> 100 µM	27.5 µM	> 100 µM	35.6 µM	> 100 µM	36.1 µM	> 100 µM	31.5 µM	> 100 µM	26.5 µM	68.6 µM	46.6 µM	> 100 µM	15.8 µM	44.3 µM
COc1cc2c(Oc3ccc(NC(=O)C4(C(=O)Nc5ccc(F)cc5)CC4)cc3F)ccnc2cc1OCCCN1CCOCC1	1.61 µM and 1.54 µM	3.11 µM and 2.99 µM	0.556 µM and 0.625 µM	1.88 µM and 2.2 µM	1.16 µM and 1.93 µM	4.73 µM and > 10 µM	0.798 µM and 0.573 µM	2.17 µM and 4.15 µM	0.491 µM and 0.662 µM	2.07 µM and 3.96 µM	0.521 µM and 0.575 µM	2.05 µM and 2.51 µM	1.46 µM and 2.25 µM	3.36 µM and > 10 µM	0.288 µM and 0.456 µM	1.65 µM and 1.67 µM	0.266 µM and 0.259 µM	13.3 µM and > 10 µM	0.175 µM and 0.15 µM	1.88 µM and 2.16 µM
Nc1nc(=O)n(C2CC(O)C(CO)O2)cc1F (configuration not stated)	0.0589 µM	> 100 µM	0.0049 µM	> 100 µM	–	> 100 µM	–	> 100 µM	–	> 100 µM	0.00231 µM	> 100 µM	–	> 100 µM	0.00418 µM	< 0.0448 µM	0.199 µM	> 25.8 µM	–	> 100 µM
CC1=C(C(=O)Nc2cccc(Cl)c2)C(c2ccccc2O)C(C(=O)Nc2cccc(Cl)c2)=C(C)N1	–	29.2 µM	–	43.8 µM	–	47.6 µM	–	39.8 µM	–	33.1 µM	–	46.4 µM	–	40 µM	–	34.3 µM	–	39 µM	–	43 µM
